Measured values: patent US20260241046A1, “PROSTATE-SPECIFIC MEMBRANE ANTIGEN RECEPTOR-TARGETING RADIOPHARMACEUTICALS AND USES THEREOF” (Nuclidium AG, priority 2024, published 2026)

How the values were obtained:
[1] = test system: CD-1 mice; test: Extended single-dose toxicity study (GLP); assay type: in vivo
Experimental: (§1) The study was designed as an extended single-dose toxicity study in one rodent species and performed under GLP conditions. NODAGA-PSMA I&T toxicity was evaluated after intravenous administration on day 1 of the study, followed by an observation period of 2 weeks. 60 (30 males and 30 females) CD-1 mice were divided into one dose group and one control group. The test item was administered once by i.v. administration into the tail vein. In each of the two groups, (I) 10 male and 10 female animals were euthanized the day after dosing, (II) 5 male and 5 female recovery animals were kept for an observation period of 2 weeks after dosing to detect possible delayed occurrence or persistence of, or recovery from toxic effects.
(§2) The dose animals' group was injected with 5 mg/kg NODAGA-PSMA I&T in 5% dimethyl sulfoxide (application volume 5 mL/kg) as a vehicle. The control group underwent injection of the vehicle alone (5 mL/kg). The animals were observed daily for signs of toxicity and morbidity/mortality. All animals were sacrificed for necropsy. Blood was taken at the time of necropsies to analyze hematological and clinical biochemistry parameters and urine for urinalysis. The wet weight of a tissue subset was taken, and a set of organs/tissues was preserved. A complete histopathological evaluation of the tissues was performed on treated and control animals.

[2] = Extended single-dose toxicity study (GLP); assay type: in vivo; conditions: both sexes, mouse, in vivo, iv, 5 mg/kg; single i.v. dose, CD-1 mice; read-out: no adverse effect level (NOAEL)
Experimental: as §1, §2

[3] = Storage of lyophilized precursor; assay type: physicochemical; conditions: lyophilized powder, kept at 25° C. for up to 14 days
[4] = approved PET radiotracers, for comparison; cited from earlier work
[5] = Pharmacokinetics in healthy mice; assay type: in vivo
Experimental: The pharmacokinetics of the investigated radiopharmaceutical was evaluated in healthy female BALB/c mice from 1 to 24 hours. For the latest time points (12 and 24 hours), NODAGA-PSMA I&T was radiolabeled with ^64Cu obtained from the Tübingen University Hospital. The use of a different PET copper isotope is justified by the longer half-life of ^64Cu (t1/2=12.7 hours), which is more appropriate for tests that include delayed time points. Additionally, using an isotope from the same element ensures that the radiopharmaceutical retains its chemical and physical properties, guaranteeing consistency in the study. Mice were injected i.v. with 4 MBq (200 pmol) of [^61/64Cu]Cu-NODAGA-PSMA I&T diluted to 100 μL with saline solution. The data were combined with the results obtained from the groups of xenografts at 1 and 4 hours post-injection, as the biodistribution in nude mice was the same as in the healthy mice. The results are presented in Table 27 and are expressed as mean±standard deviation.

[6] = target: T1, PSMA (Homo sapiens, UniProt Q04609); test: Binding affinity (IC50), competition with [^125I]I-BAKuE on LNCaP cells; conditions: 0.2 nM [^125I]I-BAKuE, 1 hour on ice
T1 construct: endogenous in cells; host or cells: LNCaP
T1 sequence (Q04609 whole entry): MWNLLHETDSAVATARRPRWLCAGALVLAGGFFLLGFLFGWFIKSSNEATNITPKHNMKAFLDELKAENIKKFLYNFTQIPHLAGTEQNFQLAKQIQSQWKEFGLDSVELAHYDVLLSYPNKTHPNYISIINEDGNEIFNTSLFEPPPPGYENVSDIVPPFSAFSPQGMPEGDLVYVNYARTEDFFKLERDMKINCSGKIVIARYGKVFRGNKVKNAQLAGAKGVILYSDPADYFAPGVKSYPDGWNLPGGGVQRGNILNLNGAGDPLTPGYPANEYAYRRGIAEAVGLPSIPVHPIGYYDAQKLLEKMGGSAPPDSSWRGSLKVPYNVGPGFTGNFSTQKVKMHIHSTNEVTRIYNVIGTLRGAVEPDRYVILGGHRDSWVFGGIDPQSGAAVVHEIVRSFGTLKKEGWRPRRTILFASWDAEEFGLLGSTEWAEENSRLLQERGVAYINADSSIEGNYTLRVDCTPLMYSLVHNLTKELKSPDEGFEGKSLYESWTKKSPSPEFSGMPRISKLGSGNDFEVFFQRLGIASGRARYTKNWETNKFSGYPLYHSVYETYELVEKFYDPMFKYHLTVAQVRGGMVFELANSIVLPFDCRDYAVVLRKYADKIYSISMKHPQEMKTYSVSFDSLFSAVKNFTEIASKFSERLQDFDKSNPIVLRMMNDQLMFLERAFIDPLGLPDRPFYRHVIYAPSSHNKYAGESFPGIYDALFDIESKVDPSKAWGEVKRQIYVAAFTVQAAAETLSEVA
Experimental: The binding affinity of NODAGA-PSMA I&T was determined by measuring IC50 by labelling the precursor with natural copper (^natCu). […] The radioiodinated ((S)-1-carboxy-5-(4-(-^125I-iodo-benzamido) pentyl) carbamoyl)-L-glutamic acid ([^125I]I-BAKuE) was used as reference radioligand. The assay was performed on LNCaP cells, human prostate cancer cells characterized by high expression levels of PSMA.
^natCu-NODAGA-PSMA I&T was produced by dissolving NODAGA-PSMA I&T (0.7 μmol) in 0.30 mL of ammonium acetate (0.5 M, pH 8), followed by the addition of 0.15 mL CuCl2 in 0.05 M hydrochloric acid. The reaction mixture was incubated for 15 min at 95° C. The product was purified from unlabeled ^natCu using a SepPak Classic C18 cartridge (Waters, Eschborn, Germany), washed with water, and eluted with 2 mL methanol. After evaporation of methanol, the product was reconstituted in 0.3 mg/mL 30% (v/v) acetonitrile in water.
The assay was performed on LNCaP cells seeded in 24-well plates. The cells were incubated with increasing concentrations of ^natCu-NODAGA-PSMA I&T (ranging from 0.1 up to 100 nM) in the presence of 0.2 nM [^125]I-BAKuE. After 1 hour of incubation on ice, the unbound (free) [^125I]I-BAKuE was collected by removing the medium (EMEM EBS) and the cells were detached with 1 M sodium hydroxide for counting (bound radioligand). […]

[7] = 5 mg/kg i.v., CD-1 mice, transitory, non-adverse
[8] = 12 hours post-injection (^64Cu)
[9] = 24 hours post-injection (^64Cu)

Structure (SMILES): O=C(O)CC[C@H](NC(=O)N[C@@H](CCCCNC(=O)CCCCCCC(=O)NCCCC[C@@H](NC(=O)[C@@H](Cc1ccccc1)NC(=O)[C@@H](Cc1ccc(O)c(I)c1)NC(=O)CC[C@H](C(=O)O)N1CCN(CC(=O)O)CCN(CC(=O)O)CC1)C(=O)O)C(=O)O)C(=O)O [NODAGA-PSMA I&T, NODAGA-(I-y) fk (Sub-KuE)]
- clinical tolerance ([1]; 5 mg/kg i.v., CD-1 mice): clinically well-tolerated
- effects on body weight gain or food consumption ([1]; 5 mg/kg i.v., CD-1 mice): No effects on body weight gain or food consumption were noted
- effects on organ weights ([1]; 5 mg/kg i.v., CD-1 mice): No adverse effects on organ weights were noted
- macroscopic or microscopic findings ([1]; 5 mg/kg i.v., CD-1 mice): No macroscopic or microscopic findings that could be attributed to treatment
- treatment-related mortality or acute adverse effect ([1]; 5 mg/kg i.v., CD-1 mice): no treatment-related mortality or acute adverse effect was registered
- glucose level [1, 7]: decrease in glucose level
- platelet count [1, 7]: decrease in platelet count
- potassium level [1, 7]: increase in potassium level
- safety ratio ([1]; versus intended average patient dose 0.4 μg/kg, with dose conversion factor): 1000 times
- NOAEL at 2 weeks [2]: 5 mg/kg
- degradation on storage [3]: no signs of degradation

Structure (SMILES): O=C(O)CC[C@H](NC(=O)N[C@@H](CCCCNC(=O)c1ccc([18F])nc1)C(=O)O)C(=O)O [Pylarify]
- Effective Dose [4]: 0.017 mSv/MBq

Structure (SMILES): O=C([O-])CN1CCN(CC(=O)[O-])CCN([C@H](CCC(=O)N[C@H](Cc2ccc(O)c(I)c2)C(=O)N[C@H](Cc2ccccc2)C(=O)N[C@H](CCCCNC(=O)CCCCCCC(=O)NCCCC[C@H](NC(=O)N[C@@H](CCC(=O)O)C(=O)O)C(=O)O)C(=O)O)C(=O)O)CC1.[Cu+2] [[^61/64Cu]Cu-NODAGA-PSMA I&T]
- Biodistribution healthy mice, Adrenal ([5]; 1 hour post-injection): 14.38 ± 4.39 % AI/g
- Biodistribution healthy mice, Blood ([5]; 1 hour post-injection): 0.33 ± 0.09 % AI/g
- Biodistribution healthy mice, Femur ([5]; 1 hour post-injection): 2.48 ± 0.97 % AI/g
- Biodistribution healthy mice, Heart ([5]; 1 hour post-injection): 0.49 ± 0.12 % AI/g
- Biodistribution healthy mice, Intestine ([5]; 1 hour post-injection): 2.11 ± 0.85 % AI/g
- Biodistribution healthy mice, Kidneys ([5]; 1 hour post-injection): 124 ± 21 % AI/g
- Biodistribution healthy mice, Liver ([5]; 1 hour post-injection): 1.12 ± 0.25 % AI/g
- Biodistribution healthy mice, Lung ([5]; 1 hour post-injection): 1.49 ± 0.45 % AI/g
- Biodistribution healthy mice, Muscles ([5]; 1 hour post-injection): 0.99 ± 0.30 % AI/g
- Biodistribution healthy mice, Pancreas ([5]; 1 hour post-injection): 1.37 ± 0.90 % AI/g
- Biodistribution healthy mice, Salivary glands ([5]; 1 hour post-injection): 1.89 ± 0.28 % AI/g
- Biodistribution healthy mice, Spleen ([5]; 1 hour post-injection): 9.33 ± 3.81 % AI/g
- Biodistribution healthy mice, Stomach ([5]; 1 hour post-injection): 1.12 ± 0.15 % AI/g
- Biodistribution healthy mice, Adrenal ([5]; 4 hours post-injection): 7.31 ± 2.76 % AI/g
- Biodistribution healthy mice, Blood ([5]; 4 hours post-injection): 0.11 ± 0.03 % AI/g
- Biodistribution healthy mice, Femur ([5]; 4 hours post-injection): 1.34 ± 0.38 % AI/g
- Biodistribution healthy mice, Heart ([5]; 4 hours post-injection): 0.25 ± 0.06 % AI/g
- Biodistribution healthy mice, Intestine ([5]; 4 hours post-injection): 1.12 ± 0.48 % AI/g
- Biodistribution healthy mice, Kidneys ([5]; 4 hours post-injection): 94 ± 12 % AI/g
- Biodistribution healthy mice, Liver ([5]; 4 hours post-injection): 0.88 ± 0.25 % AI/g
- Biodistribution healthy mice, Lung ([5]; 4 hours post-injection): 0.68 ± 0.22 % AI/g
- Biodistribution healthy mice, Muscles ([5]; 4 hours post-injection): 0.45 ± 0.18 % AI/g
- Biodistribution healthy mice, Pancreas ([5]; 4 hours post-injection): 0.55 ± 0.16 % AI/g
- Biodistribution healthy mice, Salivary glands ([5]; 4 hours post-injection): 0.58 ± 0.12 % AI/g
- Biodistribution healthy mice, Spleen ([5]; 4 hours post-injection): 2.35 ± 1.45 % AI/g
- Biodistribution healthy mice, Stomach ([5]; 4 hours post-injection): 0.72 ± 0.15 % AI/g
- Biodistribution healthy mice, Adrenal [5, 8]: 2.99 ± 0.93 % AI/g
- Biodistribution healthy mice, Blood [5, 8]: 0.11 ± 0.01 % AI/g
- Biodistribution healthy mice, Femur [5, 8]: 0.50 ± 0.10 % AI/g
- Biodistribution healthy mice, Heart [5, 8]: 0.26 ± 0.05 % AI/g
- Biodistribution healthy mice, Intestine [5, 8]: 0.94 ± 0.41 % AI/g
- Biodistribution healthy mice, Kidneys [5, 8]: 60 ± 9 % AI/g
- Biodistribution healthy mice, Liver [5, 8]: 0.96 ± 0.18 % AI/g
- Biodistribution healthy mice, Lung [5, 8]: 0.52 ± 0.11 % AI/g
- Biodistribution healthy mice, Muscles [5, 8]: 0.25 ± 0.05 % AI/g
- Biodistribution healthy mice, Pancreas [5, 8]: 0.28 ± 0.04 % AI/g
- Biodistribution healthy mice, Salivary glands [5, 8]: 0.39 ± 0.05 % AI/g
- Biodistribution healthy mice, Spleen [5, 8]: 1.40 ± 0.57 % AI/g
- Biodistribution healthy mice, Stomach [5, 8]: 0.52 ± 0.03 % AI/g
- accumulated activity in the kidneys ([5]; 24 hours post-injection): < 20 % IA/g
- Biodistribution healthy mice, Adrenal [5, 9]: 1.17 ± 0.22 % AI/g
- Biodistribution healthy mice, Blood [5, 9]: 0.08 ± 0.01 % AI/g
- Biodistribution healthy mice, Femur [5, 9]: 0.20 ± 0.05 % AI/g
- Biodistribution healthy mice, Heart [5, 9]: 0.21 ± 0.02 % AI/g
- Biodistribution healthy mice, Intestine [5, 9]: 0.46 ± 0.11 % AI/g
- Biodistribution healthy mice, Kidneys [5, 9]: 16.1 ± 4.9 % AI/g
- Biodistribution healthy mice, Liver [5, 9]: 0.84 ± 0.11 % AI/g
- Biodistribution healthy mice, Lung [5, 9]: 0.32 ± 0.12 % AI/g
- Biodistribution healthy mice, Muscles [5, 9]: 0.08 ± 0.02 % AI/g
- Biodistribution healthy mice, Pancreas [5, 9]: 0.17 ± 0.03 % AI/g
- Biodistribution healthy mice, Salivary glands [5, 9]: 0.22 ± 0.05 % AI/g
- Biodistribution healthy mice, Spleen [5, 9]: 0.58 ± 0.15 % AI/g
- Biodistribution healthy mice, Stomach [5, 9]: 0.31 ± 0.05 % AI/g

Structure (SMILES): O=C([O-])CN(CCN(CC(=O)[O-])Cc1cc(CCC(=O)NCCCCCC(=O)NCCCC[C@H](NC(=O)N[C@@H](CCC(=O)O)C(=O)O)C(=O)O)ccc1[O-])Cc1cc(CCC(=O)O)ccc1[O-].[68Ga+3].[OH3+] [[^68Ga]Ga-PSMA-11]
- Effective Dose [4]: 0.023 mSv/MBq

Structure (SMILES): O=C(O)CC[C@H](NC(=O)N[C@@H](CCCCNC(=O)CCCCCCC(=O)NCCCC[C@@H](NC(=O)[C@@H](Cc1ccccc1)NC(=O)[C@@H](Cc1ccc(O)c(I)c1)NC(=O)CC[C@H](C(=O)O)N1CCN2CCN(CC1)CC(=O)[O][Cu][O]C(=O)C2)C(=O)O)C(=O)O)C(=O)O [^natCu-NODAGA-PSMA I&T]
- IC50 [6]: 9.3 ± 1.8 nM
